Data taken from ChEMBL document CHEMBL1926601, “Persipeptides A and B, two cyclic peptides from Streptomyces sp. UTMC 1154” (Bioorg Med Chem, 2012).
Activity calls are given as the source filed them. No cut-off for these calls is given here. Square brackets hold non-standard residues; d marks the D form. Peptide text beside a SMILES is read from it. NMeF = CN[C@@H](Cc1ccccc1)C(=O)O; NMeV = CN[C@H](C(=O)O)C(C)C

Columns and labels:
Staphylococcus aureus [1] = experiment: Antimicrobial activity against Staphylococcus aureus at 100 ug/ml by agar diffusion test; format: functional, organism-based
Staphylococcus aureus [2] = experiment: Antimicrobial activity against methicillin-resistant Staphylococcus aureus at 100 ug/ml by agar diffusion test; format: functional, organism-based

Row | Compound | Activity (Staphylococcus aureus [1]) | Activity (Staphylococcus aureus [2])
1 | CC(C)[C@@H]1NC(=O)[C@H](C(C)C)N(C)C(=O)[C@H](C(C)C)NC(=O)[C@H](Cc2ccccc2)N(C)C(=O)[C@H](Cc2ccccc2)NC1=O (cyclo(F[NMeF]V[NMeV]V)) | inactive | inactive
2 | CC(C)[C@@H]1NC(=O)[C@H](Cc2ccccc2)N(C)C(=O)[C@H](C(C)C)NC(=O)[C@H](C(C)C)N(C)C(=O)[C@H](Cc2ccccc2)NC1=O (cyclo(F[NMeV]V[NMeF]V)) | inactive | inactive
